Laboratory results taken from patent publication US20120130150A1, “APPARATUS AND METHOD OF TREATMENT UTILIZING A VARYING ELECTROMAGNETIC ENERGIZATION PROFILE” (International Scientific Pty Ltd., priority 2009, published 2012).
Structures can show the parent of a compound that is named as a salt.

Key:
Type in all cases: in vitro ADME
[1] = Franz-type diffusion of hydrocortisone through human epidermis, Dermaportation vs passive; settings: for flux (skin penetration): saturated solution in 20:80 ethanol:PBS pH 7.4; for cumulative amount penetrated: at 30 min
Method: (§1) Human skin was obtained following abdominoplasty surgery under existing approval from the Human Research Ethics Committee of Curtin University.
(§2) The epidermis was heat separated from the dermis using standard procedures (Kligman and Christophers 1963). The epidermis was mounted in Franz-type diffusion cells with the stratum corneum facing the donor compartment. Skin integrity was determined by conductance measurement. The receptor compartment was filled with 20:80 ethanol:phosphate buffered saline pH 7.4, stirred continuously and maintained at 37° C. throughout the experiment. Hydrocortisone solution (1 mL of saturated solution in 20:80 ethanol:phosphate buffered saline pH 7.4; solubility approx 1 mg/mL) was applied to the donor side of the epidermis.
(§3) Dermaportation was applied from time 0 to 4 h. Samples were removed from the receptor fluid at time points up to 4 h. At each time point the receptor fluid volume was replaced with fresh receptor solution preheated to 37° C. Four Dermaportation cells and three passive cells (no Dermaportation) were conducted using skin from the abdominal region of a donor. The content of hydrocortisone in receptor fluid samples was analysed by HPLC with ultraviolet detection using a validated assay procedure.
The cumulative amount of hydrocortisone in receptor versus time was plotted and flux values calculated from the slopes per group.

[2] = Franz-type diffusion of naltrexone through human epidermis, Dermaportation vs passive; settings: for flux0-2h (skin penetration): 0.5% w/v in PBS pH 7.4
Method: as §1
as §2, with “phosphate” for “20:80 ethanol:phosphate”, “Naltrexone (0.5% w/v)” for “Hydrocortisone solution (1 mL of saturated solution”, “(pH 7.4)” for “pH 7.4; solubility approx 1 mg/mL)”
as §3, with “up to 8 h. At” for “up to 4 h. At”, “cells and 4 passive cells” for “cells and three passive cells”, “content of naltrexone in receptor” for “content of hydrocortisone in receptor”
The cumulative amount of naltrexone in receptor versus time was plotted and flux values calculated from the slopes per group.

[3] = Franz-type diffusion of 5-aminolevulinic acid through human epidermis; settings: at 4 h; 2% w/v solution in PBS pH 7.4; with Dermaportation only (0-4 h)
Method: Overview: ALA solution was applied to the surface of human epidermis for a contact period of up to 4 h. Dermaportation applied continuously from 0 to 4 h was compared to passive diffusion. ALA penetrating the epidermis would diffuse into a receptor fluid of phosphate buffered saline (pH 7.4: PBS). The receptor fluid was analysed for ALA content by high performance liquid chromatography (HPLC).
In vitro epidermal penetration: Human skin was obtained following abdominoplasty surgery under existing approval from the Human Research Ethics Committee of Curtin University. Skin from a donor was used in this study. The epidermis was heat separated from the dermis using standard procedures (Kligman and Christophers 1963). The epidermis was mounted in Franz-type diffusion cells with the stratum corneum facing the donor compartment. Skin integrity was determined by conductance measurement.
The receptor compartment was filled with phosphate buffered saline pH 7.4, stirred continuously and maintained at 37° C. throughout the experiment. ALA solution (2% w/v of ALA in phosphate buffered saline pH 7.4) was applied to the donor side of the epidermis. Dermaportation (cycle 2) was applied from time 0 to 4 h. […] The content of ALA in receptor fluid samples was analysed by HPLC with ultraviolet detection using a validated assay procedure. […]

[4] = Franz-type diffusion of Voltaren Emulgel diclofenac through human epidermis, Dermaportation vs passive; settings: for flux (skin penetration): PBS receptor, 37° C.; for cumulative amount penetrated: at 8 h
Method: Human epidermis was mounted in vertical Franz type diffusion cells (stratum corneum facing up), according to the method of Kligman and Christophers (1963). Voltaren Emulgel® (1 g containing 1.16% diclofenac diethylammonium salt; Novartis) was applied to the donor compartment of diffusion cells, with PBS in the receptor compartment (3.0 mL; stirred continuously; 37° C.). Dermaportation coils were placed around the exterior of 4 cells, with 4 additional cells without coils (passive control). Dermaportation energy was applied from time 30-60 min. Samples of the receptor solution were removed and replaced with fresh buffer over an 8 h period. All samples were analysed for diclofenac content by HPLC with UV detection by a validated method. The cumulative amount of diclofenac in receptor versus time was plotted and flux values calculated from the slopes per group. Statistical analyses used a t-test on the delta scores from the zero time point to the time point in question.

C[C@]12CCC(=O)C=C1CC[C@@H]1[C@@H]2[C@@H](O)C[C@@]2(C)[C@H]1CC[C@]2(O)C(=O)CO [hydrocortisone, Hydrocortisone]
flux (skin penetration) ([1]; Dermaportation 0-4 h): 2.44 μg/cm^2/h
cumulative amount penetrated ([1]; Dermaportation): 93.22 µg
cumulative amount penetrated ([1]; passive diffusion): 2.51 µg
flux (skin penetration) ([1]; passive administration): 0.08 μg/cm^2/h

O=C1CC[C@@]2(O)[C@H]3Cc4ccc(O)c5c4[C@@]2(CCN3CC2CC2)[C@H]1O5 [naltrexone, Naltrexone]
flux0-2h (skin penetration) ([2]; Dermaportation 0-4 h): 152.6 μg/cm^2/h
diffusion with Dermaportation compared with passive administration ([2]; Dermaportation for 240 min, Time by Treat interaction p<0.05): diffused faster and in more quantity
flux0-2h (skin penetration) ([2]; passive administration): 1.6 μg/cm^2/h

NCC(=O)CCC(=O)O [ALA, 5-aminolevulinic acid]
applied dose penetrated to the receptor [3]: approximately 40%

O=C(O)Cc1ccccc1Nc1c(Cl)cccc1Cl [diclofenac, diclofenac diethylammonium salt]
flux (skin penetration) ([4]; Dermaportation applied 30-60 min, Voltaren Emulgel 1 g (1.16% diclofenac diethylammonium salt)): 2.97 µg/h
cumulative amount penetrated ([4]; Dermaportation applied 30-60 min): 14.25 µg
cumulative amount penetrated ([4]; passive diffusion): 7.59 µg
flux (skin penetration) ([4]; passive administration, Voltaren Emulgel 1 g): 1.58 µg/h
diffusion level versus zero time point (t-test delta score) ([4]; passive diffusion, any time point up to 8 h): did not reach diffusion levels different from 0
